Measurements from patent publication US20080269251A1, “Substituted Pyrazinone Derivatives as Alpha2C-Adrenoreceptor Antagonists” (priority 2005, published 2008).

Legend:
[1] = target: T1, human adrenergic-α2C receptor (Homo sapiens, UniProt P18825); experiment: Radioligand binding experiment for hα2C-adrenoceptor ([3H]raulwolscine); details: [3H]raulwolscine 1 nM, 60 minutes at 25° C.; for IC50: read-out: h-α2C pIC50 (converted)
T1 construct: expressed in transfected cells; host or cells: CHO cells, stably transfected; membrane preparation
T1 sequence (P18825 1-462): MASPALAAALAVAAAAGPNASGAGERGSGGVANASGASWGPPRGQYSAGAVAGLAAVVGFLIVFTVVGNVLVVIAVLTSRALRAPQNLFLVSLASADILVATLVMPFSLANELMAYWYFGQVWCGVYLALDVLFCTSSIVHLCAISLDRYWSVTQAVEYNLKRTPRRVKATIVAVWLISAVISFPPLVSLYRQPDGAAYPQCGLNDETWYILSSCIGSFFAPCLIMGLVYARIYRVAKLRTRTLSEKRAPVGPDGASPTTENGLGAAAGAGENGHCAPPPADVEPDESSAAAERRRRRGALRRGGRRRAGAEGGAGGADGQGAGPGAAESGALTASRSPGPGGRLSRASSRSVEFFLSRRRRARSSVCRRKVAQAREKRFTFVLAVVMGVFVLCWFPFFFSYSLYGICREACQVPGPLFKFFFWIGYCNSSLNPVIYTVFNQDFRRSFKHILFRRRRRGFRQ
Protocol: (§1) The interaction of the compounds of Formula (I) with α2C-adrenoceptor receptors was assessed in in vitro radioligand binding experiments. In general, a low concentration of a radioligand with a high binding affinity for a particular receptor or transporter is incubated with a sample of a tissue preparation enriched in a particular receptor or transporter or with a preparation of cells expressing cloned human receptors in a buffered medium. During the incubation, the radioligand binds to the receptor or transporter. When equilibrium of binding is reached, the receptor bound radioactivity is separated from the non-bound radioactivity, and the receptor- or transporter-bound activity is counted. The interaction of the test compounds with the receptor is assessed in competition binding experiments. Various concentrations of the test compound are added to the incubation mixture containing the receptor- or transporter preparation and the radioligand. The test compound in proportion to its binding affinity and its concentration inhibits binding of the radioligand. The radioligand used for […] receptor binding was [^3H]-raulwolscine.
(§2) CHO cells, stabile transfected with human adrenergic-α2A, -α2B or α2C receptor cDNA, were cultured in Dulbecco's Modified Eagle's Medium (DMEM)/Nutrient mixture Ham's F12 (ratio 1:1)(Gibco, Gent-Belgium) supplemented with 10% heat inactivated fetal calf serum (Life Technologies, Merelbeke-Belgium) and antibiotics (100 IU/ml penicillin G, 100 μg/ml streptomycin sulphate, 110 μg/ml pyruvic acid and 100 μg/ml L-glutamine). One day before collection, cells were induced with 5 mM sodiumbutyrate. Upon 80-90% of confluence, cells were scraped in phosphate buffered saline without Ca^2+ and Mg^2+ and collected by centrifugation at 1500×g for 10 minutes. The cells were homogenised in Tris-HCl 50 mM using an Ultraturrax homogenizer and centrifuged for 10 minutes at 23,500×g. The pellet was washed once by resuspension and rehomogenization and the final pellet was resuspended in Tris-HCl, divided in 1 ml aliquots and stored at −70° C.
(§3) Membranes were thawed and re-homogenized in incubation buffer (glycylglycine 25 mM, pH 8.0). In a total volume of 500 μl, 2-10 μg protein was incubated with [^3H]raulwolscine (NET-722) (New England Nuclear, USA) (1 nM final concentration) with or without competitor for 60 minutes at 25° C. followed by rapid filtration over GF/B filter using a Filtermate196 harvester (Packard, Meriden, Conn.). Filters were rinsed extensively with ice-cold rinsing buffer (Tris-HCl 50 mM pH 7.4). Filter-bound radioactivity was determined by scintillation counting in a Topcount (Packard, Meriden, Conn.) and results were expressed as counts per minute (cpm). Non-specific binding was determined in the presence of 1 μM oxymetazoline for hα2A- and hα2B receptors and 1 μM spiroxatrine for hα2C receptors.
(§4) Data from assays in the presence of compound were calculated as a percentage of total binding measured in the absence of test compound. Inhibition curves, plotting percent of total binding versus the log value of the concentration of the test compound, were automatically generated, and sigmoidal inhibition curves were fitted using non-linear regression. The pIC50 values of test compounds were derived from individual curves.

[2] = target: T2, human adrenergic-α2A receptor (Homo sapiens, UniProt P08913); experiment: Radioligand binding experiment for hα2A-adrenergic receptor ([3H]raulwolscine); details: [3H]raulwolscine 1 nM, 60 minutes at 25° C.; for IC50: read-out: h-α2A pIC50 (converted)
T2 construct: expressed in transfected cells; host or cells: CHO cells, stably transfected; membrane preparation
T2 sequence (P08913 1-465): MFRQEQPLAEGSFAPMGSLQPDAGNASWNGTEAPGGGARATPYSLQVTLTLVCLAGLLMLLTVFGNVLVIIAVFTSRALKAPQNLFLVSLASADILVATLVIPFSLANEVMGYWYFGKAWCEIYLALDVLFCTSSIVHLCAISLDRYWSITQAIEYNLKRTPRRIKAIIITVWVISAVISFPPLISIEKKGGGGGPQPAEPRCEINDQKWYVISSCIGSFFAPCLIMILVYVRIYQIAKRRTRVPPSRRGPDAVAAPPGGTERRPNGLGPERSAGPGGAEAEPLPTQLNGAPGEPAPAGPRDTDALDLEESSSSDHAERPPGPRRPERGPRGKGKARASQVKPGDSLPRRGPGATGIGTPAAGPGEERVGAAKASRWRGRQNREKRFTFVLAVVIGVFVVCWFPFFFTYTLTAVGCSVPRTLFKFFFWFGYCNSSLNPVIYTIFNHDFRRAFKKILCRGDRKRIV
Protocol: as §1, §2, §3, §4

5HT-transporter = target: T3, 5HT-transporter (Homo sapiens, UniProt P31645); experiment: Binding experiment for the 5HT-transporter ([3H]paroxetine, human platelet membranes); details: [3H]paroxetine 0.5 nM, 60 min at 25° C.; for IC50: read-out: h-5HTT pIC50 (converted)
T3 construct: Human platelet membranes (Oceanix Biosciences Corporation, Hanover, Md., USA) were thawed; tissue Oceanix Biosciences Corporation, Hanover, Md., USA; host or cells: human platelet membranes
Protocol: as §1
Human platelet membranes (Oceanix Biosciences Corporation, Hanover, Md., USA) were thawed, diluted in buffer (Tris-HCl 50 mM, 120 mM NaCl and 5 mM KCl) and quickly (max 3 s) homogenised with an Ultraturrax homogenizer. […] Incubation was stopped by rapid filtration of the incubation mixture over GF/B filters, pre-wetted with 0.1% polyethyleneamine, using a Filtermate196 harvester (Packard, Meriden, Conn.). Filters were rinsed extensively with ice-cold buffer and radioactivity on the filters was counted in a Topcount liquid scintillation counter (Packard, Meriden, Conn.). Data were expressed as cpm. Imipramine (at 1 μM final concentration) was used to determine the non-specific binding.
as §4

T3 sequence (P31645 whole entry): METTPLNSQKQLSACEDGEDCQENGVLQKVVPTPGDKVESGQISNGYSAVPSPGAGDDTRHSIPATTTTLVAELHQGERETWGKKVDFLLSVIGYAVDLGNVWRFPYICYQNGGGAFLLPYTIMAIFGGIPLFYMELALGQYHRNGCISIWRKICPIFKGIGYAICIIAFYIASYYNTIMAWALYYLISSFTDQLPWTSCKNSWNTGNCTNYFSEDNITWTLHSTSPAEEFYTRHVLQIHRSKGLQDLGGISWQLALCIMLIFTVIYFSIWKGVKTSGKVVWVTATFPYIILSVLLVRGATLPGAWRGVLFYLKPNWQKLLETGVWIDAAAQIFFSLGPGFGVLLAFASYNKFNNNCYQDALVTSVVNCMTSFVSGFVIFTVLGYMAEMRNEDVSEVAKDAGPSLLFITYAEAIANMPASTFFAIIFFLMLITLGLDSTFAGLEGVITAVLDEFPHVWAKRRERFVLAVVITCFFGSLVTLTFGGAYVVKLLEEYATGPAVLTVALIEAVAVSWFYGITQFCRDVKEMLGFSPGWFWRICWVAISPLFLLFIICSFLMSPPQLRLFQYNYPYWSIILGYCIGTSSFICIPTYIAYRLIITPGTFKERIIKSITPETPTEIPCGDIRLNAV

Row | SMILES | h-α2C pIC50 [1] | h-α2A pIC50 [2] | h-5HTT pIC50 (5HT-transporter) | IC50 [1] [nM] | IC50 [2] [nM] | IC50 (5HT-transporter) [nM]
1 | NCCCn1ccnc(NC2CCN(Cc3ccc4ccccc4c3)CC2)c1=O [1-03] |  |  |  | 50.1 | 200 | 200
2 | CNCCCn1ccnc(NC2CCN(Cc3ccc4ccccc4c3)CC2)c1=O [1-04] |  |  |  | 25.1 | 251 | 251
3 | CCCNCc1ccc(-n2ccnc(NC3CCN(Cc4ccc5ccccc5c4)CC3)c2=O)cc1 [1-06] |  |  |  | 10 | 251 | 20
4 | O=c1c(NC2CCN(Cc3ccc4ccccc4c3)CC2)nccn1-c1ccc(CNCCF)cc1 [1-07] |  |  |  | 6.31 | 126 | 7.94
5 | O=c1c(NC2CCN(Cc3ccc4ccccc4c3)CC2)nccn1-c1ccc(CNCCF)c(F)c1 [1-08] |  |  |  | 7.94 | 126 | 10
6 | CCCNC(=O)Cc1ccc(-n2ccnc(NC3CCN(Cc4ccc5ccccc5c4)CC3)c2=O)cc1 [1-11] |  |  |  | 20 | 501 | 20
7 | CN(C)CCCn1ccnc(NC2CCN(Cc3ccc4ccccc4c3)CC2)c1=O [1-12] |  |  |  | 31.6 | 200 | 251
8 | CN(C)C(=O)Cn1ccnc(NC2CCN(Cc3ccc4ccccc4c3)CC2)c1=O [1-15] |  |  |  | 126 | 398 | 3160
9 | CCOC(CN(Cc1ccccc1)C(=O)Cn1ccnc(NC2CCN(Cc3ccc4ccccc4c3)CC2)c1=O)OCC [1-20] |  |  |  | 25.1 | 398 | 100
10 | COCCNCc1ccc(-n2ccnc(NC3CCN(Cc4ccc5ccccc5c4)CC3)c2=O)cc1 [1-22] |  |  |  | 15.8 | 200 | 15.8
11 | CCCC(=O)Nc1cccc(-n2ccnc(NC3CCN(Cc4ccc5ccccc5c4)CC3)c2=O)c1 [1-23] |  |  |  | 10 | 39.8 | 6.31
12 | CC(CC(=O)NCc1ccc(-n2ccnc(NC3CCN(Cc4ccc5ccccc5c4)CC3)c2=O)cc1)CC(C)(C)C (stereo not shown) [1-27] |  |  |  | 63.1 | 631 | 20
13 | O=C(CC1CCCC1)NCc1ccc(-n2ccnc(NC3CCN(Cc4ccc5ccccc5c4)CC3)c2=O)cc1 [1-28] | 7.5 | 6.3 | 8.1 |  |  | 
14 | C=CCCC(=O)NCc1ccc(-n2ccnc(NC3CCN(Cc4ccc5ccccc5c4)CC3)c2=O)cc1 [1-31] | 7.5 | 6.5 | 8.1 |  |  | 
15 | CC(C)(C)OC(=O)NCCCn1ccnc(NC2CCN(Cc3ccc4ccccc4c3)CC2)c1=O [1-32] |  |  |  | 12.6 | 200 | 31.6
16 | O=c1c(NC2CCN(Cc3ccc4ccccc4c3)CC2)nccn1-c1ccc(CNCC2CCCO2)cc1 (stereo not shown) [1-79b] |  |  |  | 6.31 |  | 2.51
17 | O=C1c2ccccc2C(=O)N1CC#CCn1ccnc(NC2CCN(Cc3ccc4ncccc4c3)CC2)c1=O [9-30] |  |  |  | 31.6 |  | 

Next, values leading:

Row | h-α2C pIC50 [1] | h-α2A pIC50 [2] | h-5HTT pIC50 (5HT-transporter) | IC50 [1] [nM] | IC50 [2] [nM] | IC50 (5HT-transporter) [nM] | SMILES
18 | 8.1 | 6.2 | 7.7 |  |  |  | O=C(NCc1ccc(-n2ccnc(NC3CCN(Cc4ccc5ccccc5c4)CC3)c2=O)cc1)C1CCCO1 (racemic) [1-99]
19 |  |  |  | 20 | 200 | 20 | NCc1ccc(-n2ccnc(NC3CCN(Cc4ccc5ccccc5c4)CC3)c2=O)cc1 [1-01]
20 |  |  |  | 12.6 | 50.1 | 63.1 | NCc1ccc(Cn2ccnc(NC3CCN(Cc4ccc5ccccc5c4)CC3)c2=O)cc1 [1-02]
21 |  |  |  | 31.6 | 398 | 15.8 | CCNC(=O)Cc1ccc(-n2ccnc(NC3CCN(Cc4ccc5ccccc5c4)CC3)c2=O)cc1 [1-10]
22 |  |  |  | 63.1 | 501 | 2000 | CCCN(C)C(=O)Cn1ccnc(NC2CCN(Cc3ccc4ccccc4c3)CC2)c1=O [1-13]
23 | 8.1 | 6.9 | 7.8 |  |  |  | CN(CCF)Cc1ccc(-n2ccnc(NC3CCN(Cc4ccc5ccccc5c4)CC3)c2=O)cc1 [1-14]
24 |  |  |  | 25.1 | 316 | 251 | CN(C(=O)Cn1ccnc(NC2CCN(Cc3ccc4ccccc4c3)CC2)c1=O)C1CCCCC1 [1-16]
25 |  |  |  | 39.8 | 200 | 79.4 | CCCCN(Cc1ccccc1)C(=O)Cn1ccnc(NC2CCN(Cc3ccc4ccccc4c3)CC2)c1=O [1-18]
26 |  |  |  | 63.1 | 398 | 79.4 | O=C(Cn1ccnc(NC2CCN(Cc3ccc4ccccc4c3)CC2)c1=O)NCC(c1ccccc1)c1ccccc1 [1-19]
27 |  |  |  | 15.8 | 251 | 15.8 | COCCN(C)Cc1ccc(-n2ccnc(NC3CCN(Cc4ccc5ccccc5c4)CC3)c2=O)cc1 [1-21]
28 |  |  |  | 25.1 | 316 | 6.31 | CCCC(=O)NCc1ccc(-n2ccnc(NC3CCN(Cc4ccc5ccccc5c4)CC3)c2=O)cc1 [1-24]
29 |  |  |  | 39.8 | 631 | 12.6 | CCCC(=O)NCc1ccc(-n2ccnc(NC3CCN(Cc4ccc5ccccc5c4)CC3)c2=O)cc1OC [1-25]
30 |  |  |  | 39.8 | 398 | 20 | CCCC(=O)N(Cc1ccc(-n2ccnc(NC3CCN(Cc4ccc5ccccc5c4)CC3)c2=O)cc1)C(=O)CCC [1-29]
31 |  |  |  | 31.6 | 316 | 15.8 | COCCC(=O)NCc1ccc(-n2ccnc(NC3CCN(Cc4ccc5ccccc5c4)CC3)c2=O)cc1 [1-30]
32 |  |  |  | 79.4 | 501 | 25.1 | CC(C)(C)OC(=O)NCc1ccc(-n2ccnc(NC3CCN(Cc4ccc5ccccc5c4)CC3)c2=O)cc1 [1-33]
33 |  |  |  | 12.6 |  |  | O=C1c2ccccc2C(=O)N1CC#CCn1ccnc(NC2CCN(Cc3ccc4ncccc4c3)CC2)c1=O [9-11]
